Assay results taken from the supplement of paper PMC10307832.

How the values were obtained:
Experiment in all cases: relative viability (nuclei count vs DMSO), 5 days (fraction); higher = more cells survive
AZD8055 + Bortezomib = compound: COc1ccc(-c2ccc3c(N4CCOC[C@@H]4C)nc(N4CCOC[C@@H]4C)nc3n2)cc1CO [AZD8055] + CC(C)C[C@H](NC(=O)[C@H](Cc1ccccc1)NC(=O)c1cnccn1)B(O)O [Bortezomib] (partner 0.002 µM)
In short: (§1)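 Relative viability is defined as nuclei in treated wells over nuclei in vehicle wells. Duplicate plates were run and medians reported. Lung cancer cell lines in 1536-well plates were dosed by pin tool one day after seeding, with one drug or with a fixed anchor-drug dose plus five library-drug doses (not always all listed) in √10 steps, and nuclei were counted after 5 days.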

AZD8055 + Navitoclax = compound: COc1ccc(-c2ccc3c(N4CCOC[C@@H]4C)nc(N4CCOC[C@@H]4C)nc3n2)cc1CO [AZD8055] + CC1(C)CCC(c2ccc(Cl)cc2)=C(CN2CCN(c3ccc(C(=O)NS(=O)(=O)c4ccc(N[C@H](CCN5CCOCC5)CSc5ccccc5)c(S(=O)(=O)C(F)(F)F)c4)cc3)CC2)C1 [Navitoclax] (partner 0.5 µM)
In short: as §1

AZD8055 + Dasatinib = compound: COc1ccc(-c2ccc3c(N4CCOC[C@@H]4C)nc(N4CCOC[C@@H]4C)nc3n2)cc1CO [AZD8055] + Cc1nc(Nc2ncc(C(=O)Nc3c(C)cccc3Cl)s2)cc(N2CCN(CCO)CC2)n1 [Dasatinib] (partner 0.075 µM)
In short: as §1

AZD8055 + Luminespib = compound: COc1ccc(-c2ccc3c(N4CCOC[C@@H]4C)nc(N4CCOC[C@@H]4C)nc3n2)cc1CO [AZD8055] + CCNC(=O)c1noc(-c2cc(C(C)C)c(O)cc2O)c1-c1ccc(CN2CCOCC2)cc1 [Luminespib] (partner 0.01 µM)
In short: as §1

Cell Line	relative viability (AZD8055 + Bortezomib; first compound 0.01 µM)	relative viability (AZD8055 + Bortezomib; first compound 0.03162 µM)	relative viability (AZD8055 + Bortezomib; first compound 0.1 µM)	relative viability (AZD8055 + Bortezomib; first compound 0.3162 µM)	relative viability (AZD8055 + Bortezomib; first compound 1 µM)	relative viability (AZD8055 + Navitoclax; first compound 0.01 µM)	relative viability (AZD8055 + Navitoclax; first compound 0.03162 µM)	relative viability (AZD8055 + Navitoclax; first compound 0.1 µM)	relative viability (AZD8055 + Navitoclax; first compound 0.3162 µM)	relative viability (AZD8055 + Navitoclax; first compound 1 µM)	relative viability (AZD8055 + Dasatinib; first compound 0.01 µM)	relative viability (AZD8055 + Dasatinib; first compound 0.03162 µM)	relative viability (AZD8055 + Dasatinib; first compound 0.1 µM)	relative viability (AZD8055 + Dasatinib; first compound 0.3162 µM)	relative viability (AZD8055 + Dasatinib; first compound 1 µM)	relative viability (AZD8055 + Luminespib; first compound 0.01 µM)	relative viability (AZD8055 + Luminespib; first compound 0.03162 µM)	relative viability (AZD8055 + Luminespib; first compound 0.1 µM)	relative viability (AZD8055 + Luminespib; first compound 0.3162 µM)	relative viability (AZD8055 + Luminespib; first compound 1 µM)
LOU-NH91	0.452	0.512	0.489	0.497	0.381	0.708	0.642	0.587	0.466	0.437	0.545	0.6	0.415	0.431	0.406	0.349	0.348	0.325	0.282	0.317
LU99A	0.936	0.549	0.374	0.235	0.209	0.69	0.517	0.232	0.164	0.191	0.432	0.324	0.314	0.173	0.268	0.234	0.189	0.185	0.191	0.188
LXF-289	1.06	0.982	0.951	0.682	0.756	0.979	0.995	0.831	0.694	0.529	0.191	0.222	0.192	0.118	0.109	0.715	0.599	0.623	0.309	0.32
NCI-H23	1.3	0.881	0.791	0.27	0.271	0.879	0.847	0.677	0.318	0.253	0.874	0.732	0.572	0.276	0.27	0.193	0.216	0.208	0.229	0.297
NCI-H322M	1.24	1.34	1.17	0.894	1.11	1.17	1.09	0.845	0.488	0.546	0.259	0.265	0.251	0.246	0.249	0.797	0.597	0.357	0.348	0.289
NCI-H441	0.502	0.577	0.396	0.168	0.186	0.748	0.955	0.464	0.334	0.251	0.538	0.608	0.474	0.281	0.245	0.347	0.291	0.283	0.22	0.221
NCI-H460	1.25	0.79	0.44	0.195	0.0935	1.19	0.892	0.523	0.121	0.0653	0.554	0.365	0.213	0.0862	0.0669	0.03	0.029	0.0182	0.0223	0.0329
NCI-H520	0.623	0.185	0.16	0.127	0.147	0.928	0.612	0.359	0.21	0.176	0.142	0.13	0.15	0.14	0.171	0.239	0.228	0.171	0.183	0.16
NCI-H596	0.856	0.722	0.697	0.459	0.497	0.975	0.67	0.369	0.288	0.241	0.594	0.516	0.468	0.286	0.301	0.961	0.813	0.44	0.343	0.346
NCI-H647	1.71	0.748	0.541	0.266	0.17	1.35	1.03	0.637	0.391	0.219	0.179	0.136	0.132	0.0579	0.144	0.15	0.126	0.125	0.0957	0.121
NCI-H727	0.976	0.824	0.698	0.388	0.275	0.432	0.397	0.324	0.168	0.215	0.444	0.464	0.41	0.28	0.312	0.375	0.34	0.345	0.345	0.376
NCI-H838	1.37	0.513	0.302	0.227	0.298	0.985	0.627	0.347	0.358	0.305	0.269	0.264	0.262	0.231	0.217	0.317	0.223	0.234	0.156	0.196
NCI-H1355	1.23	1.06	0.9	0.309	0.315	0.959	0.736	0.382	0.21	0.21	0.551	0.443	0.435	0.218	0.263	0.601	0.369	0.234	0.238	0.206
NCI-H1437	0.611	0.549	0.422	0.206	0.209	1.23	1.09	0.921	0.344	0.213	0.498	0.444	0.275	0.187	0.124	1.28	1.26	1.23	0.775	0.365
NCI-H1650	0.299	0.182	0.215	0.208	0.214	1.01	1.15	1.07	0.519	0.502	0.317	0.302	0.292	0.19	0.265	0.204	0.196	0.206	0.203	0.253
